Results taken from PubChem BioAssay (NCI).
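Step 1: Grow cells in 96-well plates. Step 2: Expose to compound for 48 hours at 5 concentrations. Step 3: Interpolate endpoints linearly; if unreached, use highest concentration. TGI marks complete inhibition of growth.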

What was measured:
Assay in all cases: growth of human tumour cells (NCI), 48 h
SK-OV-3 ovarian = tested on: SK-OV-3 ovarian
UO-31 renal = tested on: UO-31 renal
T-47D breast = tested on: T-47D breast
SNB-19 CNS = tested on: SNB-19 CNS
SN12C renal = tested on: SN12C renal
HCC-2998 colon = tested on: HCC-2998 colon
MDA-N = tested on: MDA-N
DU-145 prostate = tested on: DU-145 prostate
NCI-H522 lung = tested on: NCI-H522 lung
HCT-15 colon = tested on: HCT-15 colon
KM12 colon = tested on: KM12 colon
HOP-92 NSCLC = tested on: HOP-92 NSCLC
PC-3 prostate = tested on: PC-3 prostate
HS 578T breast = tested on: HS 578T breast
NCI-H23 lung = tested on: NCI-H23 lung
NCI-H460 lung = tested on: NCI-H460 lung
SR leukemia = tested on: SR leukemia
NCI/ADR-RES ovarian = tested on: NCI/ADR-RES ovarian
U251 CNS = tested on: U251 CNS
A498 renal = tested on: A498 renal
SK-MEL-5 melanoma = tested on: SK-MEL-5 melanoma
HCT-116 colon = tested on: HCT-116 colon
HT29 colon = tested on: HT29 colon
UACC-257 melanoma = tested on: UACC-257 melanoma
A549 NSCLC = tested on: A549 NSCLC
OVCAR-8 ovarian = tested on: OVCAR-8 ovarian
SK-MEL-28 melanoma = tested on: SK-MEL-28 melanoma
MOLT-4 leukemia = tested on: MOLT-4 leukemia
K-562 leukemia = tested on: K-562 leukemia
ACHN renal = tested on: ACHN renal
COLO 205 colon = tested on: COLO 205 colon
MDA-MB-435 = tested on: MDA-MB-435
CCRF-CEM leukemia = tested on: CCRF-CEM leukemia
LOX IMVI melanoma = tested on: LOX IMVI melanoma
NCI-H226 lung = tested on: NCI-H226 lung
RXF 393 renal = tested on: RXF 393 renal
TK-10 renal = tested on: TK-10 renal
SF-268 CNS = tested on: SF-268 CNS
SNB-75 CNS = tested on: SNB-75 CNS
SW-620 colon = tested on: SW-620 colon
OVCAR-4 ovarian = tested on: OVCAR-4 ovarian
MCF7 breast = tested on: MCF7 breast
SF-295 CNS = tested on: SF-295 CNS
MDA-MB-231 breast = tested on: MDA-MB-231 breast
HL-60(TB) leukemia = tested on: HL-60(TB) leukemia
HOP-62 NSCLC = tested on: HOP-62 NSCLC
786-0 renal = tested on: 786-0 renal
OVCAR-5 ovarian = tested on: OVCAR-5 ovarian
MALME-3M melanoma = tested on: MALME-3M melanoma
EKVX NSCLC = tested on: EKVX NSCLC
RPMI-8226 leukemia = tested on: RPMI-8226 leukemia
CAKI-1 renal = tested on: CAKI-1 renal
UACC-62 melanoma = tested on: UACC-62 melanoma
IGROV1 ovarian = tested on: IGROV1 ovarian
OVCAR-3 ovarian = tested on: OVCAR-3 ovarian
SF-539 CNS = tested on: SF-539 CNS
BT-549 breast = tested on: BT-549 breast
M14 melanoma = tested on: M14 melanoma

Compound: Cc1ccc(S(=O)(=O)N2CCCSCC2)cc1
- TGI (SK-OV-3 ovarian): > 100 µM
- TGI (UO-31 renal): > 100 µM
- TGI (T-47D breast): > 100 µM
- TGI (SNB-19 CNS): > 100 µM
- TGI (SN12C renal): > 100 µM
- TGI (HCC-2998 colon): > 100 µM
- TGI (MDA-N): > 100 µM
- TGI (DU-145 prostate): > 100 µM
- TGI (NCI-H522 lung): > 100 µM
- TGI (HCT-15 colon): > 100 µM
- TGI (KM12 colon): > 100 µM
- TGI (HOP-92 NSCLC): > 100 µM
- TGI (PC-3 prostate): > 100 µM
- TGI (HS 578T breast): > 100 µM
- TGI (NCI-H23 lung): > 100 µM
- TGI (NCI-H460 lung): > 100 µM
- TGI (SR leukemia): > 100 µM
- TGI (NCI/ADR-RES ovarian): > 100 µM
- TGI (U251 CNS): > 100 µM
- TGI (A498 renal): > 100 µM
- TGI (SK-MEL-5 melanoma): > 100 µM
- TGI (HCT-116 colon): > 100 µM
- TGI (HT29 colon): > 100 µM
- TGI (UACC-257 melanoma): > 100 µM
- TGI (A549 NSCLC): > 100 µM
- TGI (OVCAR-8 ovarian): > 100 µM
- TGI (SK-MEL-28 melanoma): > 100 µM
- TGI (MOLT-4 leukemia): > 100 µM
- TGI (K-562 leukemia): > 100 µM
- TGI (ACHN renal): > 100 µM
- TGI (COLO 205 colon): > 100 µM
- TGI (MDA-MB-435): > 100 µM
- TGI (CCRF-CEM leukemia): > 100 µM
- TGI (LOX IMVI melanoma): > 100 µM
- TGI (NCI-H226 lung): > 100 µM
- TGI (RXF 393 renal): > 100 µM
- TGI (TK-10 renal): > 100 µM
- TGI (SF-268 CNS): > 100 µM
- TGI (SNB-75 CNS): > 100 µM
- TGI (SW-620 colon): > 100 µM
- TGI (OVCAR-4 ovarian): > 100 µM
- TGI (MCF7 breast): > 100 µM
- TGI (SF-295 CNS): > 100 µM
- TGI (MDA-MB-231 breast): > 100 µM

Compound: C(=C\c1ccco1)/c1cccc(/C=C/c2ccco2)n1
- TGI (HL-60(TB) leukemia): > 50 µM
- TGI (HOP-62 NSCLC): > 50 µM
- TGI (SK-OV-3 ovarian): > 50 µM
- TGI (UO-31 renal): > 50 µM
- TGI (786-0 renal): > 50 µM
- TGI (SNB-19 CNS): > 50 µM
- TGI (SN12C renal): > 50 µM
- TGI (HCC-2998 colon): > 50 µM
- TGI (MDA-N): > 50 µM
- TGI (DU-145 prostate): > 50 µM
- TGI (NCI-H522 lung): > 50 µM
- TGI (OVCAR-5 ovarian): > 50 µM
- TGI (HCT-15 colon): > 50 µM
- TGI (KM12 colon): > 50 µM
- TGI (HOP-92 NSCLC): > 50 µM
- TGI (MALME-3M melanoma): > 50 µM
- TGI (HS 578T breast): > 50 µM
- TGI (NCI-H23 lung): > 50 µM
- TGI (NCI-H460 lung): > 50 µM
- TGI (EKVX NSCLC): > 50 µM
- TGI (SR leukemia): > 50 µM
- TGI (RPMI-8226 leukemia): > 50 µM
- TGI (CAKI-1 renal): > 50 µM
- TGI (NCI/ADR-RES ovarian): > 50 µM
- TGI (A498 renal): > 50 µM
- TGI (SK-MEL-5 melanoma): > 50 µM
- TGI (HCT-116 colon): > 50 µM
- TGI (HT29 colon): > 50 µM
- TGI (UACC-257 melanoma): > 50 µM
- TGI (A549 NSCLC): > 50 µM
- TGI (OVCAR-8 ovarian): > 50 µM
- TGI (SK-MEL-28 melanoma): > 50 µM
- TGI (MOLT-4 leukemia): > 50 µM
- TGI (UACC-62 melanoma): > 50 µM
- TGI (K-562 leukemia): > 50 µM
- TGI (IGROV1 ovarian): > 50 µM
- TGI (ACHN renal): > 50 µM
- TGI (COLO 205 colon): > 50 µM
- TGI (OVCAR-3 ovarian): > 50 µM
- TGI (MDA-MB-435): > 50 µM
- TGI (CCRF-CEM leukemia): > 50 µM
- TGI (LOX IMVI melanoma): > 50 µM
- TGI (NCI-H226 lung): > 50 µM
- TGI (RXF 393 renal): > 50 µM
- TGI (TK-10 renal): > 50 µM
- TGI (SF-268 CNS): > 50 µM
- TGI (SNB-75 CNS): 33.1 µM
- TGI (SW-620 colon): > 50 µM
- TGI (OVCAR-4 ovarian): > 50 µM
- TGI (SF-539 CNS): > 50 µM
- TGI (MCF7 breast): > 50 µM
- TGI (BT-549 breast): > 50 µM
- TGI (SF-295 CNS): > 50 µM
- TGI (M14 melanoma): > 50 µM
